pEC50: −log10 of the molar value. A value given as a limit tells only on which side of the number the result lay.

This passage reports EC50, HTS data and RBA data results from ChEMBL document CHEMBL1145862, “Identification of "latent hits" in compound screening collections” (J Med Chem, 2003).

In one assay the target is T1, Estrogen receptor (Homo sapiens, UniProt P03372).
T1 sequence (P03372 whole entry): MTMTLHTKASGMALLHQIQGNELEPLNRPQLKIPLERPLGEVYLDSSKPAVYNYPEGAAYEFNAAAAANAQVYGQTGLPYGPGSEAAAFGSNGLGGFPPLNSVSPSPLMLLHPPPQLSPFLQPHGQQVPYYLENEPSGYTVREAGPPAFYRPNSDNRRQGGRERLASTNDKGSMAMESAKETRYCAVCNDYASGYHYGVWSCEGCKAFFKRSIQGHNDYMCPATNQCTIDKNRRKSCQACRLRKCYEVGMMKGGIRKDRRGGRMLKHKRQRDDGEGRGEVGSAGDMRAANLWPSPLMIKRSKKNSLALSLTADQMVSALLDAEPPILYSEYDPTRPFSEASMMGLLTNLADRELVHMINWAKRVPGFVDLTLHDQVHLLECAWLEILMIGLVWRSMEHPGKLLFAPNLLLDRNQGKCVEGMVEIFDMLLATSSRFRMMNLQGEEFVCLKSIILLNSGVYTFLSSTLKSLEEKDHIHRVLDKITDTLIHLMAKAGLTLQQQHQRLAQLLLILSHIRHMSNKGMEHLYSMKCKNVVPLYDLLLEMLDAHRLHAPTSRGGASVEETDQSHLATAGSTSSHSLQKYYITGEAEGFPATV
Nature of the assay: Transcriptional agonist activity in Chinese hamster ovary cells expressing human Estrogen Receptor alpha. The class given is functional, cell-based.

The target of assay [1] is T2, Estrogen receptor (Homo sapiens) (UniProt P03372).
T2 sequence (whole entry): T1 sequence (P03372 whole entry)
The assay can be described thus: Percent change in 17-beta-estradiol mediated transcriptional activation in CHO cells expressing human estrogen receptor alpha at 10e-6 M. Format: functional, cell-based.

In assay [2] the target is T2, Estrogen receptor (Homo sapiens). Nature of the assay: Relative binding affinity for human estrogen receptor alpha expressed in CHO cells compared to Diethylstilbestrol Methyl Ether. The class given is cell-based.
Assay [3] has the same target. The note with it: CHO.
Assay [4] has the same target. The assay can be described thus: Relative Binding Affinity for human estrogen receptor alpha expressed in CHO cells compared to Diethylstilbestrol Dimethyl Ether. Format: cell-based.

For the compound `COc1ccc(-c2cccc(-c3ccc(OC)cc3)c2)cc1`, on Estrogen receptor, the pEC50 was < 5.00. The compound further returned an HTS data in assay [1] of 7.
Compound `CC/C(=C(/CC)c1ccc(OC)cc1)c1ccc(O)cc1` displayed an RBA data in assay [2] of 1.31.
Regarding `Oc1ccc(-c2cc(-c3ccc(O)cc3)cc(-c3ccc(O)cc3)c2)cc1`, the pEC50 on Estrogen receptor was 7.10.
`COc1ccc(C2Oc3ccc(O)cc3C(=O)C2C)cc1` (configuration not stated): at Estrogen receptor, the pEC50 was < 5.00. For the same compound, in assay [1], the HTS data was found to be 67.
On Estrogen receptor, `Oc1ccc(-c2ccc(-c3ccc(O)cc3)cc2)cc1` had a pEC50 of 5.92.
`COc1ccc2c(c1)CC[C@@H]1[C@@H]2CC[C@]2(C)[C@@H](OC)CC[C@@H]12`: the HTS data in assay [3] worked out at 0.
Consider `CC1C(=O)c2cc(O)ccc2OC1c1ccc(O)cc1` (configuration not stated), for which the pEC50 at Estrogen receptor is 8.40.
For `COc1ccc2c(c1)CC[C@@H]1[C@@H]2CC[C@]2(C)[C@@H](O)CC[C@@H]12`, the HTS data in assay [3] was determined as 76.
Consider `Oc1ccc(-c2cccc(-c3ccc(O)cc3)c2)cc1`, for which the pEC50 on Estrogen receptor was 6.10.
For the compound `CC/C(=C(/CC)c1ccc(OC)cc1)c1ccc(OC)cc1`, the RBA data in assay [4] was -1.25.

For orientation: pEC50 means the EC50 on a negative log10 scale, so that one unit is a factor of ten.
